Results published in PubChem BioAssay AID504539 (Broad Institute, 2011).

System: Cell-based prion protein 5' UTR reporter, plate reader
Assay: prion protein 5' UTR mRNA inhibitors – cell-based, plate reader, cherry-picked samples, dose response (AID 504539)

Row | Compound | AC50 [nM]
1 | O=C(NNC(=O)c1ccccc1O)c1ccccc1O | 234
2 | COC(=O)c1ccccc1NC(=O)Cn1c(-c2nonc2N)nc2ccccc21 | 605
3 | Cc1nc2ncccn2c1-c1csc(Nc2ccc(N(C)C)cc2)n1 | 168
4 | CC(=O)O[C@H]1C(=O)[C@]2(C)[C@H]([C@H](OC(=O)c3ccccc3)[C@]3(O)C[C@H](OC(=O)[C@H](O)[C@@H](NC(=O)c4ccccc4)c4ccccc4)C(C)=C1C3(C)C)[C@]1(OC(C)=O)CO[C@@H]1C[C@@H]2O | 188
5 | CC(C)(C)c1ccc(C(=O)O/N=C(\N)c2ccccn2)cc1 | 317
6 | COc1ccc(N=CC2=C(O)c3ccccc3C2=O)c(OC)c1 | 1170
7 | O=c1c2ccccc2oc2cc(C#CC3(O)CCCCC3)ccc12 | 1840
8 | COc1cc(SC)ccc1C(=O)Nc1ccc(Br)cn1 | 500
9 | CC(=O)OC(C)(C)/C=C/C(=O)[C@](C)(O)[C@H]1[C@H](O)C[C@@]2(C)[C@@H]3CC=C4[C@H](C[C@H](O)C(=O)C4(C)C)[C@]3(C)C(=O)C[C@]12C | < 38
10 | CC12CCC3C(CCC4(O)CC(O)CCC34C=NO)C1(O)CCC2C1=COC(=O)C1 (stereo not given) | 160
11 | Cc1cc(C(=O)COC(=O)c2ccccc2Br)c(C)n1CC1CCCO1 (stereo not given) | 90
12 | Cc1cc(C(=O)CSc2nnc3ccccn23)c(C)n1-c1ccccc1 | 480
13 | Cc1nc2cc(-c3ccccc3)sc2c(=O)n1N | 284
14 | C/C(=N\NC(=O)c1ccccc1NC(=O)c1ccc(Cl)cc1)c1ccncc1 | 418
15 | Cc1ccc(-c2cn3cc(C)ccc3n2)cc1 | 113
16 | CCC(C)(C)c1ccc(Oc2ccc(N)cc2)cc1 | 173
17 | CCOc1ccc(NC(=O)Nc2cccc(C(=O)O)c2)cc1 | 136
18 | COc1cccc2c1C(=O)c1c(O)c3c(c(O)c1C2=O)C[C@@](O)(C(=O)CO)C[C@@H]3O[C@H]1C[C@H](N)[C@H](O)[C@H](C)O1 | 650
19 | c1ccc2nc(-c3ccc(N4CCOCC4)cc3)ccc2c1 | 385
20 | Cc1ccc(N2C(=O)c3cccc4c(N)ccc(c34)C2=O)c2cccnc12 | 134
21 | O=C(c1ccc(Cl)cc1)N1CCCCC(Sc2nnc(-c3ccc4c(c3)OCO4)o2)C1=O (stereo not given) | 419
22 | CCC(C)C1NC(=O)C(NC(=O)C(CC(C)C)N(C)C(=O)C2CCCN2C(=O)C(C)O)C(C)OC(=O)C(Cc2ccc(OC)cc2)N(C)C(=O)C2CCCN2C(=O)C(CC(C)C)NC(=O)[C@H](C)C(=O)[C@H](C(C)C)OC(=O)CC1O (stereo not given in full) | 84
23 | CCCCCOC(=O)c1[nH]c2c(c1C)C(=O)CC(c1ccco1)C2 (stereo not given) | 226
24 | CCCC1=Nc2cc(C(=O)NCCCOCC)ccc2Sc2ccccc21 | 434
25 | CN(c1ccc2nc3ccccc3c(=O)n2n1)C1CCCCC1 | 574
26 | Cc1ccc(C(=O)c2cc([N+](=O)[O-])ccc2N2CCCCC2)cc1 | 848
27 | CC(=O)OC1C(=O)OCC23CCC4(C)OC4C2OC2CC(OC(=O)C=CC=CC(=O)OCCC1C)C3(C)C21CO1 (stereo not given) | < 38

Row | Compound | AC50 [nM]
28 | O=C(O)c1ccc(N/N=C/c2ccc3c(c2)OCO3)cc1 | 419
29 | CN(NC(=O)c1ccccc1F)c1nc(C(F)(F)F)nc2ccccc12 | 1320
30 | Cc1ccc(C(=O)NCCc2ccccc2)cc1 | 612
31 | c1ccc(-c2ccc(-c3nc(-c4ccccn4)no3)cc2)cc1 | 224
32 | CC1CCN(c2ccc(-c3cccc(NC(=O)C(F)(F)F)c3)nn2)CC1 | 194
33 | Cc1ccc(NC(=O)/C=C/c2ccco2)nc1 | 287
34 | C/C(=N\NC(=O)c1n[nH]c2c1CCC2)c1cccs1 | 401
35 | NC(=O)c1cc2c3ccccc3ccn2c1-c1ccccc1 | 635
36 | O=C(CSc1nnc(-c2ccccc2)o1)Nc1ccccc1F | 675
37 | CC1CCCN(c2ncnc3c2cnn3-c2ccc(Cl)cc2)C1 (stereo not given) | < 38
38 | COc1ccccc1C(=O)Nc1nc2ccccc2s1 | 204
39 | COc1cc2c(c(OC)c1OC)-c1ccc(O)cc1C(NC(C)=O)CC2 (stereo not given) | 128
40 | COc1ccc(C2=Nn3c(nnc3-c3ccccc3OC)SC2)cc1OC | 395
41 | CC(=O)O[C@H]1C[C@@H]2OC3C=C(C)CCC3(C)[C@@]1(C)[C@@]21CO1 (stereo not given in full) | 2070
42 | COc1cc(OC)cc(-c2cc3nc(C)c(CCC(=O)O)c(C)n3n2)c1 | 1610
43 | COc1ccc(-c2nsc3c(N4CCCCC4)ncnc23)cc1 | 1680
44 | OCC1OC(n2ccc3c(NO)ncnc32)C(O)C1O (stereo not given) | 189
45 | Cc1ccc2nc(NC(=O)c3ccccn3)sc2c1 | 220
46 | Cc1cnc(NC(=O)c2ccc3c(c2)OCCO3)s1 | 159
47 | COc1cc(SC)ccc1C(=O)Nc1ccc(Cl)cn1 | 567
48 | COc1ccc(OC)c(N/C=C/C(=O)c2ccccc2)c1 | 558
49 | Cc1ccc(CCC(=O)Nc2ncc(Cc3cccc(Cl)c3Cl)s2)o1 | 358
50 | Cc1ccc(NC(=O)O/N=C/c2c(C)nn(C(C)(C)C)c2C)cc1Cl | 270
51 | O=C(Nc1ccc(N2CCCCC2)cc1)c1ccccn1 | 273
52 | COC1C(C)OC(OC2CC(C)(O)Cc3cc4c(c(O)c32)C(=O)c2c(O)cc3c(c2C4=O)OC2OC3(C)C(O)C(N(C)C)C2O)C(OC)C1(C)OC (stereo not given) | 118
53 | CCOc1ccc(NC(=O)c2ccccn2)cc1 | 345
54 | COc1cccc2c1C(=O)c1c(O)c3c(c(O)c1C2=O)CC(O)(C(=O)CO)CC3OC1CC(N(C)C)C(O)C(C)O1 (stereo not given) | 130

Row | Compound | AC50 [nM]
55 | Cc1cc(C)c2c(N)c(C(=O)Nc3ncc(C)s3)sc2n1 | 388
56 | CCCS(=O)(=O)c1cnc(C2COc3ccccc3O2)nc1N (stereo not given) | 487
57 | O=C(Nc1ccc(-c2nc3cccnc3s2)cc1)C1CCCO1 (stereo not given) | 630
58 | Cc1ccc2nc(-c3ccc4c(c3)OCCO4)cn2c1 | 110
59 | Cc1ccc(C(=O)Nc2ncc(Cc3ccc(SC(F)F)cc3)s2)cc1 | 1560
60 | COC(=O)c1c(N)sc(C(=O)NCCc2ccccc2)c1C | 413
61 | Cc1cc(C(=O)COC(=O)c2ccccc2O)c(C)n1CC1CCCO1 (stereo not given) | < 38
62 | COC1C=CC=C(C)C(=O)NC2=CC(=O)C(N)=C(CC(C)CC(OC)C(O)C(C)C=C(C)C1OC(N)=O)C2=O (stereo not given) | < 38
63 | c1ccc(-c2noc(-c3ccc4ccccc4c3)n2)nc1 | 158
64 | CCc1ccn2cc(-c3ccc4c(c3)OCO4)nc2c1 | 384
65 | CCn1c(C)cc(C(=O)CN2C(=O)c3ccccc3S2(=O)=O)c1C | 1260
66 | O=C(CN1C(=O)c2ccccc2S1(=O)=O)N1CCc2ccccc21 | 582
67 | CCOc1ccc(OCc2cccc(C(=O)N3CCOCC3)c2)cc1 | 573
68 | COc1cccc(C(=O)O/N=C(\N)c2ccccn2)c1 | 448
69 | CN(C)CCNc1ccc2ncn3c4ccc(O)cc4c(=O)c1c23 | 2470
70 | O=C(NCCc1ccccc1F)c1ccc2c(c1)OCCO2 | 140
71 | CN=c1scc(-c2ccccc2F)n1/N=C/c1ccc[nH]1 | < 38
72 | O=C(Nc1ccc(N2CCOCC2)cc1)c1cnsn1 | 486
73 | Cc1ccc(C(=O)Nc2cc3ccccc3oc2=O)cc1 | 143
74 | Cc1ccsc1/C=N/Nc1cccc(C(=O)O)c1 | 355
75 | CCOc1ccc2c(c1)C(C)=CC(C)(C)N2S(=O)(=O)c1ccc(C)cc1 | 1590
76 | CC[C@@H](C)[C@H](C(CC(=O)N1CCCC1[C@@H](OC)[C@H](C)C(=O)N[C@H](Cc1ccccc1)c1nccs1)OC)N(C)C(=O)[C@H](NC(=O)[C@@H](C(C)C)N(C)C)C(C)C (stereo not given in full) | 117
77 | COc1cccc2c1C(=O)c1c(O)c3c(c(O)c1C2=O)CC(O)(C(C)=O)CC3OC1CC(N(C)C)C(O)C(C)O1 (stereo not given) | 165
78 | CCOc1ccccc1C1CC(=O)Nc2cc3c(cc21)OCCO3 (stereo not given) | 3820
79 | Cc1ccc2nc(-c3ccccc3)cn2c1 | 210
80 | CC1CCc2c(sc(NC(=O)CSc3ncn[nH]3)c2C#N)C1 (stereo not given) | 257
81 | CCN(CCCl)c1cc(CN(C)C)cc(NC(=O)c2ccc(C(=O)Nc3cc(CN(C)C)cc(N(CC)CCCl)c3)cc2)c1 | 472

Row | Compound | AC50 [nM]
82 | COc1cc(C(=O)N2CCN(c3ccccc3)CC2)c2ccccc2n1 | 574
83 | Cc1c(C(=O)OCc2ccccc2)[nH]c2c1C(=O)CC(c1ccco1)C2 (stereo not given) | 388
84 | C=CCn1c(C)cc(C2=NNC(=NCC)SC2)c1C | < 38
85 | Fc1ccc(-n2nnc(-c3cnc4ccccc4c3)n2)cc1 | 1040
86 | CC(C)(C)C1C/C(=C/c2ccccn2)C(=O)/C(=C/c2ccccn2)C1 (stereo not given) | 815
87 | O=C1NC2C(O)C(O)C(O)C(O)C2c2cc3c(c(O)c21)OCO3 (stereo not given) | 1480
88 | COC(C(=O)C(O)C(C)O)C1Cc2cc3cc(OC4CC(OC5CC(O)C(O)C(C)O5)C(O)C(C)O4)c(C)c(O)c3c(O)c2C(=O)C1OC1CC(OC2CC(OC3CC(O)C(OC)C(C)O3)C(O)C(C)O2)C(O)C(C)O1 (stereo not given) | 83
89 | CN1C2CCC1/C(=C/c1ccccn1)C(=O)/C2=C\c1ccccn1 | 773
90 | O=C(O)CSCC(=O)Nc1ccc(C2CCCCC2)cc1 | 1560
91 | Cc1[nH]nc2ccc(-c3cncc(OC[C@@H](N)Cc4c[nH]c5ccccc45)c3)cc12 | 335
92 | CC(=O)O[C@H]1C(=O)[C@@]2(C)C([C@H](OC(=O)c3ccccc3)[C@]3(O)C[C@H](OC(=O)[C@H](O)[C@@H](NC(=O)c4ccccc4)c4ccccc4)C(C)=C1C3(C)C)[C@]1(OC(C)=O)CO[C@@H]1C[C@H]2O (stereo not given in full) | 160
93 | COC(=O)Cc1ccc(NC(=O)c2ccc(C(C)(C)C)cc2)cc1 | 414
94 | CSc1nc(-c2ccccc2)nc(C(Cl)Cl)n1 | 1270
95 | CC(=O)OC1CC(OC2C(O)CC(OC3C(O)CC(OC4CCC5(C)C(CCC6C5CCC5(C)C(C7=CC(=O)OC7)C(O)CC65O)C4)OC3C)OC2C)OC(C)C1OC1OC(CO)C(O)C(O)C1O (stereo not given) | 370
96 | Cc1ccc(C(=O)c2cc([N+](=O)[O-])ccc2N2CCOCC2)c(C)c1 | 2940
97 | CC(=O)OC1CC2(O)C3CCC4CC(O)CCC4(C)C3CCC2(C)C1C1=CC(=O)OC1 (stereo not given) | 92
98 | CC(=O)OC1(C)CC(C)C(=O)C(C(O)CC2CC(=O)NC(=O)C2)C1 (stereo not given) | 500
99 | COc1ccc(CCc2cc(OC)c(OC)c(OC)c2)cc1 | 40
100 | COc1cc(C2c3cc4c(cc3C(OC3OC5COC(c6cccs6)OC5C(O)C3O)C3COC(=O)C23)OCO4)cc(OC)c1O (stereo not given) | 657
101 | COc1ccc(N/C=C/C(=O)c2cc(OC)c(OC)c(OC)c2)cc1 | 2440
102 | CCCCN1C=CC(=C2C(=O)c3ccccc3C2=O)C=C1 | 248
103 | CN(C)c1ccc(CCc2ccc(N)cc2)cc1 | 831
104 | COc1ccc2[nH]c(-c3cccc(F)c3)cc(=O)c2c1 | 1550
105 | C=C1C(=O)O[C@@H]2C[C@@H](C)[C@@H]3C=CC(=O)[C@@]3(C)[C@@H](O)[C@H]12 | 1580
